According to patent EP4745138A1, “THIO-GLUTARIMIDO ISOINDOLINONE DERIVATIVE, BIFUNCTIONAL PROTEIN DEGRADER CONTAINING SAME, AND USES THEREOF” (Gluetacs Therapeutics (Shanghai) Co., Ltd., priority 2023, dated 2025):
Read-outs that look alike come from different tables or passages of the source. Blank lines part the entries; values can stand above or below the compound they belong to.

Assays:
BCR-ABL = biological target: T1, BCR-ABL (Homo sapiens, UniProt P00519+P11274+Q96SW2, E27K); assay: Western blot, target protein degradation in K562 Cell; assay type: cell-based; settings: substrate protein remaining %, treated at 500 nM and 50 nM, 24 hours
T1 construct: endogenous in cells; host or cells: K562
T1 sequence (P11274+P00519 fused, stated change not applied): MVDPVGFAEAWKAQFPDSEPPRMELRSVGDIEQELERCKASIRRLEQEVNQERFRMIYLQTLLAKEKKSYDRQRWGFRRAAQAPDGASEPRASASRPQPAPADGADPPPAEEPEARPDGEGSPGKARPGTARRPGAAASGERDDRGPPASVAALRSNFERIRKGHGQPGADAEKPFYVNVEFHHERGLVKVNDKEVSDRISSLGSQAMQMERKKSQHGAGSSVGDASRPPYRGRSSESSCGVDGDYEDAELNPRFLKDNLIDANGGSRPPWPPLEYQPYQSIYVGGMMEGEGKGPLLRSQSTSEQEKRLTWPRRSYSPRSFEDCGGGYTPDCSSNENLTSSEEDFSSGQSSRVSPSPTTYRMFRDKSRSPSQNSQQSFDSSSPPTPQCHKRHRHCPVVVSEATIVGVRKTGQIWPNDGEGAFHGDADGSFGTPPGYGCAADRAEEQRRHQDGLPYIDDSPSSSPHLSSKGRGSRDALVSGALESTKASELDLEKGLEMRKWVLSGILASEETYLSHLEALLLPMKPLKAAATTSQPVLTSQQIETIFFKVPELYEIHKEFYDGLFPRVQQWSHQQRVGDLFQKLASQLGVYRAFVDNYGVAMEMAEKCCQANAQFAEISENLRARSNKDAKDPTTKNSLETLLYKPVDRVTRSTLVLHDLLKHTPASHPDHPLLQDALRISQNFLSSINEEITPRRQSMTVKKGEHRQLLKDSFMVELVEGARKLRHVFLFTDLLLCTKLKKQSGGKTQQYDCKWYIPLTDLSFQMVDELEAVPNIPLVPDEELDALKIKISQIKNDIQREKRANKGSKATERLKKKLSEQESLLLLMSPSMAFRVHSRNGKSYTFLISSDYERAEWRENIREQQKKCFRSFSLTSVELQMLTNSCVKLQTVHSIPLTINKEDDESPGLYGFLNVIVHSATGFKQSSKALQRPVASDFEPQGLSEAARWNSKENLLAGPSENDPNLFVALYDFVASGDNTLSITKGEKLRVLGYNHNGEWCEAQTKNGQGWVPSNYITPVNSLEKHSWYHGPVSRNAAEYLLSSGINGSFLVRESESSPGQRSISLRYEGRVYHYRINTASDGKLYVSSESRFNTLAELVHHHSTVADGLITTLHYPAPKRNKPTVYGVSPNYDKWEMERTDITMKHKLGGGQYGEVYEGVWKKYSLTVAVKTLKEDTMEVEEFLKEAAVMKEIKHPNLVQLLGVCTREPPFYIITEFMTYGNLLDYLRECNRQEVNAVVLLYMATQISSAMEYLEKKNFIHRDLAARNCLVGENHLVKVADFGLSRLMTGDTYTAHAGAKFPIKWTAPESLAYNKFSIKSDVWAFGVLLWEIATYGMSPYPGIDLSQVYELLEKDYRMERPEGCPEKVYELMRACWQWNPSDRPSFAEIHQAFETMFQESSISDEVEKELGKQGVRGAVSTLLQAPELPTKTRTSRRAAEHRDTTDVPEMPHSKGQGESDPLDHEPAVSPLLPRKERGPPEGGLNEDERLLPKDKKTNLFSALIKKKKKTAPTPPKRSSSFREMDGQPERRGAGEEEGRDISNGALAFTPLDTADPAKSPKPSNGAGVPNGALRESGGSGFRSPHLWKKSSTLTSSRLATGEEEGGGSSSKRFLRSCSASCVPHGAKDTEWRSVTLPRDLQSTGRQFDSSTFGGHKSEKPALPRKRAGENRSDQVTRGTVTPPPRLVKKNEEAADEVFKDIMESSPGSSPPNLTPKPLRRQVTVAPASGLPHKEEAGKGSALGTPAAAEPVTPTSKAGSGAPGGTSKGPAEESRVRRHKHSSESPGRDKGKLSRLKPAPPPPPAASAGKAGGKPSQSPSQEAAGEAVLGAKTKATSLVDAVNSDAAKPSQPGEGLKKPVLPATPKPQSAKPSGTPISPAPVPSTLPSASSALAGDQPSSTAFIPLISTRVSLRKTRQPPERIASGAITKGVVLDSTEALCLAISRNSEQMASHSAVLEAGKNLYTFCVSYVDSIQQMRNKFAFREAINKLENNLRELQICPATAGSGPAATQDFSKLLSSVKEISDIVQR
T1 sequence (Q96SW2 whole entry, stated change not applied): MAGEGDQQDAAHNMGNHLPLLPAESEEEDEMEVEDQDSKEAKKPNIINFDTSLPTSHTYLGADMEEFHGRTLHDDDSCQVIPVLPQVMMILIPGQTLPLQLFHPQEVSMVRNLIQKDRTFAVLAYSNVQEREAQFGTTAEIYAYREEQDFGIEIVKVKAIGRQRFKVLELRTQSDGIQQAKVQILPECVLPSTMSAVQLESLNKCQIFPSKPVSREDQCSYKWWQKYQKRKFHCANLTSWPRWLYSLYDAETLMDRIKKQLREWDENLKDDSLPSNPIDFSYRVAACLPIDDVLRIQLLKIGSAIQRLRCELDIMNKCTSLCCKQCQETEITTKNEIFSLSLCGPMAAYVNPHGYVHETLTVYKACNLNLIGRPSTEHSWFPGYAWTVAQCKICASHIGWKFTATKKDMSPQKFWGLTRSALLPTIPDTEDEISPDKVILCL
T1 sequence (Q16531 whole entry partner): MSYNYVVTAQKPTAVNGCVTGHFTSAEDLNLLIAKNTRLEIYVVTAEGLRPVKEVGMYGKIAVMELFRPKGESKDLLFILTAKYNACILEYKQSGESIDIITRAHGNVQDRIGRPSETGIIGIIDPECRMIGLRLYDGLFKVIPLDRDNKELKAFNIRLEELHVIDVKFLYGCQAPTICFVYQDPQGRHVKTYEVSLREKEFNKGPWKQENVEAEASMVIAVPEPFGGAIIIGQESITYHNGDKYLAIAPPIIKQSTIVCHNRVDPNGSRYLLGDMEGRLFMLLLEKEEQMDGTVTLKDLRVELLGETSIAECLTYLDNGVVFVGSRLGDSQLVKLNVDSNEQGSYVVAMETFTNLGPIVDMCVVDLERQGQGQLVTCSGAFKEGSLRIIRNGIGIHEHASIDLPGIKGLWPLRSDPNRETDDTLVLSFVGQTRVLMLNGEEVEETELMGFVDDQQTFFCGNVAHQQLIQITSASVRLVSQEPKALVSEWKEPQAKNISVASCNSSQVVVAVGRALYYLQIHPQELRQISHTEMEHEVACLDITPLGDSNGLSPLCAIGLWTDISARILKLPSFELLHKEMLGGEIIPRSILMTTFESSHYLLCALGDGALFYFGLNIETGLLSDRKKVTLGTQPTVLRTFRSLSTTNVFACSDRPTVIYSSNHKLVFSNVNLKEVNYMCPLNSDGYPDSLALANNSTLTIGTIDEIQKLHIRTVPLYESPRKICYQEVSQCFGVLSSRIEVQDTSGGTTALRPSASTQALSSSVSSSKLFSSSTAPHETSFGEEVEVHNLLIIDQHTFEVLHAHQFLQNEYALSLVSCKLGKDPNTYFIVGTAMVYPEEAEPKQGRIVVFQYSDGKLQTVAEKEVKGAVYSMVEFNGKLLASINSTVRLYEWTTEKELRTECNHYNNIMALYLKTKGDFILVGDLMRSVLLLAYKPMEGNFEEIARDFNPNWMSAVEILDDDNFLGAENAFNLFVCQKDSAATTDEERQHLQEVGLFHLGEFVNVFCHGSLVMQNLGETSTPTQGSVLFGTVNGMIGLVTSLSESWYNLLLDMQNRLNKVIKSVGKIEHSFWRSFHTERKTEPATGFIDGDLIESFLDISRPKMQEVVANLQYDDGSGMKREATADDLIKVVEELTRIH
Protocol: (§1) Conventional Western blot assay was performed to evaluate the effects of the compounds of the present disclosure on the expression of target proteins in cells.
(§2) (1) Cell Seeding and Protein Harvesting: The selected cells were processed according to the cell seeding procedure and protein harvesting procedure in Table II-2. Table II-2 Cell Seeding and Protein Harvesting Procedures
(§3) (2) To the collected supernatant, 5X SDS sample loading buffer was added, followed by denaturation at 95°C for 5 minutes. The denatured samples were then separated by SDS-PAGE electrophoresis on a polyacrylamide gel. Proteins were transferred to a nitrocellulose membrane (0.45 µm NC membrane), blocked with blocking buffer at room temperature for 1 hour, and subjected to antibody incubation and development procedures according to the antibody manufacturer's instructions (Cell Signaling Technology).
(§4) Half-Maximal Degradation Concentration value (the drug concentration required for degrading proteins by 50%, abbreviated as DC50) reads method: comparing the grayscale values of Western blot bands from drug-treated samples with those from blank DMSO-treated controls, and identifying the drug concentration range at which the grayscale value is half that of the DMSO-treated control bands.
(§5) DC50 values can be calculated using ImageJ software to measure grayscale values of Western blot bands from drug-treated samples. The concentration-response curve is fitted to estimate the drug concentration corresponding to half the grayscale value.
(§6) Target protein remaining (%) refers to the percentage of target protein remaining in cells after treatment with protein degrader compounds.
(§7) Calculation method for target protein remaining (%): Use ImageJ software to measure grayscale values of Western blot bands from drug (protein degrader)-treated samples. The grayscale value of drug-treated bands is divided by that of internal control protein bands, and the resulting quotient is normalized to obtain the relative percentage of remaining target protein after protein degrader treatment. Target protein degradation rate(%) = 1−target protein remaining(%). [formula]

[1] = biological target: T2, human Cereblon WT GST-tagged protein (Homo sapiens, UniProt Q96SW2); assay: CRBN-binding affinity, HTRF (CEREBLON BINDING kit); settings: for inhibition at 0.5 µM: read-out: Inhibition Rate at 0.5 µM (%); for inhibition at 2 µM: read-out: Inhibition Rate at 2 µM (%)
T2 construct: purchased CISBIO 64BDCRBNPEH
T2 sequence (Q96SW2 whole entry): as the sequence (Q96SW2 whole entry, stated change not applied) above
How it was run: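 Binding to GST-tagged Cereblon was probed by HTRF tracer displacement (thalidomide-red acceptor, anti-GST Eu donor), with compounds present at final 2 µM and 0.5 µM.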

RPMI-8226 = assay: Tumor cell proliferation inhibition (CellTiter-Meiluncell Luminescent Cell Viability Assay); assay type: cell-based; settings: Homo sapiens, 96 hours; for inhibition at 0.01 µM: 10 nM, read-out: Inhibition Rate at 10 nM (%); for inhibition at 0.5 µM: 500 nM, read-out: Inhibition Rate at 500 nM (%)
How it was run: (§8)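 Following overnight seeding, tumor cells received serial compound dilutions to final levels that included 10 nM and 500 nM. Viability was assessed by luminescence at the end of the specified exposure time. Cultures were kept at 37°C with 5% CO2.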

MM.1S = assay: as above; assay type: cell-based; settings: Homo sapiens, MM1.S, MM.1S, 96 hours, Table I-10, BCR-ABL inhibitors; for inhibition at 0.01 µM: 10 nM, read-out: Inhibition Rate at 10 nM (%); for inhibition at 0.5 µM: 500 nM, read-out: Inhibition Rate at 500 nM (%)
How it was run: as §8

CDK6 = biological target: T3, CDK6 (Homo sapiens, UniProt Q00534); assay: Western blot, target protein degradation in MDA-MB-231 Cell; assay type: cell-based; settings: substrate protein remaining %, treated at 500 nM and 50 nM, 24 hours
T3 construct: endogenous in cells; host or cells: MDA-MB-231
T3 sequence (Q00534 whole entry): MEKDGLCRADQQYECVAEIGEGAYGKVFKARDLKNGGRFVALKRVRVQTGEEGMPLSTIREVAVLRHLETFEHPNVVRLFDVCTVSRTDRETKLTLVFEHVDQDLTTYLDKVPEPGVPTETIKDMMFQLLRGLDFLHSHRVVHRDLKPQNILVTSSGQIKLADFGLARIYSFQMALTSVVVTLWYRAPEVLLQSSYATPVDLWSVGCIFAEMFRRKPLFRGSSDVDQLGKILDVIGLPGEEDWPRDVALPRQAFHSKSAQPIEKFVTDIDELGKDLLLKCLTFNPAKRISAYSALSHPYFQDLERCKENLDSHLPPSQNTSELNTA
Protocol: as §1, §2, §3, §4, §5, §6, §7

CDK4 = biological target: T4, CDK4 (Homo sapiens, UniProt P11802); assay: as above; assay type: cell-based; settings: substrate protein remaining %, treated at 500 nM and 50 nM, 24 hours
T4 construct: endogenous in cells; host or cells: MDA-MB-231
T4 sequence (P11802 whole entry): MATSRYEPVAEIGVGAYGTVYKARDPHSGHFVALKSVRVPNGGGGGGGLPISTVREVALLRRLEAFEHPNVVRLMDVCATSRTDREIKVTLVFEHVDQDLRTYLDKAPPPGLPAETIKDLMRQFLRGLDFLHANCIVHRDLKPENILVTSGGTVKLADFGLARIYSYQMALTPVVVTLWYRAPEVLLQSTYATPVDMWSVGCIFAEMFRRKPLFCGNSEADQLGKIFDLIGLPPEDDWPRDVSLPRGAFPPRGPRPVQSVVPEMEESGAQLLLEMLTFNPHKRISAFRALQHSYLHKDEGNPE
Protocol: as §1, §2, §3, §4, §5, §6, §7

CFPAC-1 = assay: Tumor cell proliferation inhibition (CellTiter-Meiluncell Luminescent Cell Viability Assay); assay type: cell-based; settings: Homo sapiens, 96 hours, Table I-2, ALK inhibitors
How it was run: (§9)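 Cells were grown at 37°C under 5% CO2, seeded into 96-well plates, and dosed with compound on the next day. After a set treatment period, viability was read by luminescence with the CellTiter-Meiluncell reagent and IC50 values were derived. Final compound concentrations included 500 nM and 10 nM.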

A375 = assay: as above; assay type: cell-based; settings: Homo sapiens, 96 hours, Table I-2, ALK inhibitors
How it was run: as §9

MV-4-11 = assay: as above; assay type: cell-based; settings: Homo sapiens, 96 hours; for inhibition at 0.01 µM: MV4-11, 10 nM, read-out: Inhibition Rate at 10 nM (%); for inhibition at 0.5 µM: MV4-11, 500 nM, read-out: Inhibition Rate at 500 nM (%)
How it was run: as §8

SW620 = assay: as above; assay type: cell-based; settings: Homo sapiens, 96 hours, Table I-10, BCR-ABL inhibitors
How it was run: as §8

H1975 = assay: as above; assay type: cell-based; settings: Homo sapiens, 96 hours, Table I-3, EGFR inhibitors
How it was run: as §9

EGFR = assay: Western blot, target protein degradation in H1975 Cell; assay type: cell-based, Human; settings: substrate protein remaining %, treated at 500 nM and 50 nM, 24 hours
Protocol: as §1, §2, §3, §4, §5, §6, §7

inhibition at 0.5 µM [1]: 60 to 80%
inhibition at 2 µM [1]: 80 to 100%
SMILES: CN(C)C(=O)c1cc2cnc(Nc3ccc(N4CCN(Cc5cccc6c5CN(C5CCC(=O)NC5=O)C6=S)CC4)cn3)nc2n1C1CCCC1 (stereo not drawn) [GT-08771, 7-cyclopentyl-2-((5-(4-((2-(2,6-dioxopiperidin-3-yl)-1-thioxoisoindolin-4-yl)methyl)piperazin-1-yl)pyridin-2-yl)amino)-N,N-dimethyl-7H-pyrrolo[2,3-d]pyrimidine-6-carboxamide]
Degradation of substrate protein CDK6 (CDK6): A (0% ≤ substrate protein remaining % ≤ 80%)
Degradation of substrate protein CDK4 (CDK4): A (0% ≤ substrate protein remaining % ≤ 80%)

inhibition at 0.5 µM [1]: 60 to 80%
inhibition at 2 µM [1]: 80 to 100%
SMILES: COc1cc(N2CCC(N3CCN(Cc4ccc5c(c4)CN(C4CCC(=O)NC4=O)C5=S)CC3)CC2)ccc1Nc1ncc(Cl)c(Nc2ccccc2P(C)(C)=O)n1 (stereo not drawn) [GT-09425, 3-(5-((4-(1-(4-((5-chloro-4-((2-(dimethylphosphoryl)phenyl)amino)pyrimidin-2-yl)amino)-3-methoxyphenyl)piperidin-4-yl)piperazin-1-yl)methyl)-1-thioxoisoindolin-2-yl)piperidine-2,6-dione]
inhibition at 0.01 µM (CFPAC-1; 10 nM, read-out: Inhibition Rate at 10 nM (%)): 10 to 20%
inhibition at 0.5 µM (CFPAC-1; 500 nM, read-out: Inhibition Rate at 500 nM (%)): 60 to 70%
inhibition at 0.01 µM (A375; A-375, 10 nM, read-out: Inhibition Rate at 10 nM (%)): 20 to 30%
inhibition at 0.5 µM (A375; A-375, 500 nM, read-out: Inhibition Rate at 500 nM (%)): 50 to 60%

inhibition at 0.5 µM [1]: 40 to 53%
inhibition at 2 µM [1]: 60 to 80%
SMILES: O=C1CCC(N2Cc3c(CN4CCN(C5CCN(c6ncc(C(=O)Nc7ccc(OC(F)(F)Cl)cc7)cc6-c6cc[nH]n6)CC5)CC4)cccc3C2=S)C(=O)N1 (stereo not drawn) [GT-08776, N-(4-(chlorodifluoromethoxy)phenyl)-6-(4-(4-((2-(2,6-dioxopiperidin-3-yl)-1-thioxoisoindolin-4-yl)methyl)piperazin-1-yl)piperidin-1-yl)-5-(1H-pyrazol-3-yl)nicotinamide]
Degradation of substrate protein BCR-ABL (BCR-ABL): A (0% ≤ substrate protein remaining % ≤ 80%)

inhibition at 0.5 µM [1]: 60 to 80%
inhibition at 2 µM [1]: 60 to 80%
SMILES: O=C1CCC(N2Cc3ccc(CN4C[C@H]5C[C@@H]4CN5c4ccc(-c5cc(F)c6c(c5)C(=O)N(C(C(=O)Nc5nccs5)c5ncn7c5CCC7)C6)cc4)cc3C2=S)C(=O)N1 (stereo partly drawn) [GT-08764, 2-(6,7-dihydro-5H-pyrrolo[1,2-c]imidazol-1-yl)-2-(6-(4-((1R,4R)-5-((2-(2,6-dioxopiperidin-3-yl)-3-thioxoisoindolin-5-yl)methyl)-2,5-diazabicyclo[2.2.1]heptan-2-yl)phenyl)-4-fluoro-1-oxoisoindolin-2-yl)-N-(thiazol-2-yl)acetamide]
inhibition at 0.01 µM (H1975; NCI-H1975, 10 nM, read-out: Inhibition Rate at 10 nM (%)): 20 to 30%
inhibition at 0.5 µM (H1975; NCI-H1975, 500 nM, read-out: Inhibition Rate at 500 nM (%)): 50 to 60%
Degradation of substrate protein EGFR (EGFR): A (0% ≤ substrate protein remaining % ≤ 80%)

inhibition at 0.5 µM [1]: 60 to 80%
inhibition at 2 µM [1]: 80 to 100%
SMILES: COc1cc(N2CCC(N3CCN(Cc4ccc5c(c4)C(=S)N(C4CCC(=O)NC4=O)C5)CC3)CC2)c(C)cc1Nc1ncc(Br)c(Nc2ccc3nccnc3c2P(C)(C)=O)n1 (stereo not drawn) [GT-08762, 3-(6-((4-(1-(4-((5-bromo-4-((5-(dimethylphosphoryl)quinoxalin-6-yl)amino)pyrimidin-2-yl)amino)-5-methoxy-2-methylphenyl)piperidin-4-yl)piperazin-1-yl)methyl)-1-thioxoisoindolin-2-yl)piperidine-2,6-dione]
inhibition at 0.01 µM (MV-4-11; Table I-3, EGFR inhibitors): 30 to 40%
inhibition at 0.5 µM (MV-4-11; Table I-3, EGFR inhibitors): 80 to 100%
inhibition at 0.01 µM (RPMI-8226; Table I-3, EGFR inhibitors): 30 to 40%
inhibition at 0.5 µM (RPMI-8226; Table I-3, EGFR inhibitors): 40 to 50%
Degradation of substrate protein EGFR (EGFR): A (0% ≤ substrate protein remaining % ≤ 80%)

More lines, now with the values behind:

SMILES: O=C1CCC(N2Cc3cc(CN4CCN(C5CCN(c6ncc(C(=O)Nc7ccc(OC(F)(F)Cl)cc7)cc6-c6cc[nH]n6)CC5)CC4)ccc3C2=S)C(=O)N1 (stereo not drawn) [GT-08770, N-(4-(chlorodifluoromethoxy)phenyl)-6-(4-(4-((2-(2,6-dioxopiperidin-3-yl)-1-thioxoisoindolin-5-yl)methyl)piperazin-1-yl)piperidin-1-yl)-5-(1H-pyrazol-3-yl)nicotinamide]
Degradation of substrate protein BCR-ABL (BCR-ABL): A (0% ≤ substrate protein remaining % ≤ 80%)
inhibition at 0.5 µM [1]: 20 to 30%
inhibition at 2 µM [1]: 60 to 80%
inhibition at 0.01 µM (RPMI-8226; Table I-10, BCR-ABL inhibitors): 10 to 20%
inhibition at 0.5 µM (RPMI-8226; Table I-10, BCR-ABL inhibitors): 40 to 50%
inhibition at 0.01 µM (MM.1S): 5 to 10%
inhibition at 0.5 µM (MM.1S): 30 to 40%

SMILES: Cc1ccc(C(=O)Nc2ccc(N3CCN(Cc4ccc5c(c4)CN(C4CCC(=O)NC4=O)C5=S)CC3)c(C(F)(F)F)c2)cc1C#Cc1cnc2cccnn12 (stereo not drawn) [GT-08768, N-(4-(4-((2-(2,6-dioxopiperidin-3-yl)-1-thioxoisoindolin-5-yl)methyl)piperazin-1-yl)-3-(trifluoromethyl)phenyl)-3-(imidazo[1,2-b]pyridazin-3-ylethynyl)-4-methylbenzamide]
Degradation of substrate protein BCR-ABL (BCR-ABL): A (0% ≤ substrate protein remaining % ≤ 80%)

SMILES: Cc1ccc(C(=O)Nc2ccc(N3CCN(Cc4cccc5c4CN(C4CCC(=O)NC4=O)C5=S)CC3)c(C(F)(F)F)c2)cc1C#Cc1cnc2cccnn12 (stereo not drawn) [GT-08774, N-(4-(4-((2-(2,6-dioxopiperidin-3-yl)-1-thioxoisoindolin-4-yl)methyl)piperazin-1-yl)-3-(trifluoromethyl)phenyl)-3-(imidazo[1,2-b]pyridazin-3-ylethynyl)-4-methylbenzamide]
Degradation of substrate protein BCR-ABL (BCR-ABL): A (0% ≤ substrate protein remaining % ≤ 80%)
inhibition at 0.01 µM (MV-4-11; Table I-10, BCR-ABL inhibitors): 20 to 30%
inhibition at 0.5 µM (MV-4-11; Table I-10, BCR-ABL inhibitors): 70 to 80%

SMILES: Cc1ccc(C(=O)Nc2ccc(CN3CCN(Cc4ccc5c(c4)CN(C4CCC(=O)NC4=O)C5=S)CC3)c(C(F)(F)F)c2)cc1C#Cc1cnc2cccnn12 (stereo not drawn) [GT-08767, N-(4-((4-((2-(2,6-dioxopiperidin-3-yl)-1-thioxoisoindolin-5-yl)methyl)piperazin-1-yl)methyl)-3-(trifluoromethyl)phenyl)-3-(imidazo[1,2-b]pyridazin-3-ylethynyl)-4-methylbenzamide]
Degradation of substrate protein BCR-ABL (BCR-ABL): A (0% ≤ substrate protein remaining % ≤ 80%)
inhibition at 0.01 µM (MV-4-11; Table I-10, BCR-ABL inhibitors): 80 to 100%
inhibition at 0.5 µM (MV-4-11; Table I-10, BCR-ABL inhibitors): 80 to 100%
inhibition at 0.01 µM (RPMI-8226; Table I-10, BCR-ABL inhibitors): 20 to 30%
inhibition at 0.5 µM (RPMI-8226; Table I-10, BCR-ABL inhibitors): 80 to 100%
inhibition at 0.01 µM (SW620; SW-620, 10 nM, read-out: Inhibition Rate at 10 nM (%)): 40 to 50%
inhibition at 0.5 µM (SW620; SW-620, 500 nM, read-out: Inhibition Rate at 500 nM (%)): 80 to 100%
inhibition at 0.01 µM (MM.1S): 70 to 80%
inhibition at 0.5 µM (MM.1S): 80 to 100%
